Structures can show the parent of a compound that is named as a salt.

T1 sequence (P50406 whole entry): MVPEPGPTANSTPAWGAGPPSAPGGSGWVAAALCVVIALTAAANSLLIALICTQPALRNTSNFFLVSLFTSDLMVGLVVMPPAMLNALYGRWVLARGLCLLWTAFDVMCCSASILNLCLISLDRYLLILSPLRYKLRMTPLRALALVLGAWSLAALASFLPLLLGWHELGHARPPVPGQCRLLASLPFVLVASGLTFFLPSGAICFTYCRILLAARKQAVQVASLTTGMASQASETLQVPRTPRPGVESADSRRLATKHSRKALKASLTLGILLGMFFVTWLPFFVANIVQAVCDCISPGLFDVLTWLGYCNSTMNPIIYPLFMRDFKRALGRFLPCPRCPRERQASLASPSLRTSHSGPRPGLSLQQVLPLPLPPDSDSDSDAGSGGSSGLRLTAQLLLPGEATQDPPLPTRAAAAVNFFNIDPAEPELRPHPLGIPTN

One assay addresses T1, human 5-HT6 receptor (Homo sapiens, UniProt P50406).
T1 construct: expressed in transfected cells; host or cells: HEK293
Kind of assay: Binding assay for human 5-HT6 receptor ([3H]LSD radioligand). The conditions noted are these: human recombinant receptor, [3H]LSD 1.5 nM, 60 minutes at 37° C.; read-out: Radiogland binding data at 5-HT6 R (h) Ki.
Experimental: Binding Assay for Human 5-HT6 Receptor
Receptor source: Human recombinant expressed in FEK293 cells
Radioligand: [^3H]LSD (60-80 Ci/mmol)
Final ligand concentration —[1.5 nM]
Non-specific determinant: Methiothepin mesylate —[0.1 μM]
Reference compound: Methiothepin mesylate
Positive control: Methiothepin mesylate
Reactions were carried out in 50 μM TRIS-HCl (pH 7.4) containing 10 μM MgCl2, 0.5 mM EDTA for 60 minutes at 37° C. The reaction was terminated by rapid vacuum filtration onto glass fiber filters. Radioactivity trapped onto the filters was determined and compared to control values in order to ascertain any interactions of test compound(s) with the cloned serotonin 5-HT6 binding site.
Take `COc1ccc(S(=O)(=O)n2ccc3c(CN4CCN(C)CC4)cccc32)cc1` [Compound 8, 1-(4-Methoxybenzenesulfonyl)-4-(4-methylpiperazin-1-ylmethyl)-1H-indole]: the inhibitory constant (Ki) was 29.1 nM.
On to `CN1CCN(Cc2cccc3c2c(Cl)cn3S(=O)(=O)c2cccc3ccccc23)CC1` [Compound 34, 3-Chloro-1-(1-naphthylsulfonyl)-4-(4-methylpiperazin-1-ylmethyl)-1H-indole], for which the Ki worked out at 165 nM.
On the same count and under the same terms, the same measure for `CN1CCN(Cc2cccc3c2ccn3S(=O)(=O)c2cccc3ccccc23)CC1` [Compound 39, 1-Naphthylsulfonyl-4-(4-methylpiperazin-1-ylmethyl)-1H-indole]: 4.82 nM.
On the same count and under the same terms, the same measure for `CN1CCN(Cc2cccc3c2c(Cl)cn3S(=O)(=O)c2cccc(Cl)c2)CC1` [Compound 33, 3-Chloro-1-(3-chlorobenzenesulfonyl)-4-(4-methylpiperazin-1-ylmethyl)-1H-indole]: 27.1 nM; for `O=S(=O)(c1ccccc1Br)n1ccc2c(CN3CCNCC3)cccc21` [Compound 36, 1-(2-Bromobenzenesulfonyl)-4-(piperazin-1-ylmethyl)-1H-indole dihydrochloride]: 0.94 nM.
Still for that read-out and setting: to `O=S(=O)(c1ccccc1)n1ccc2c(CN3CCNCC3)cccc21` [Compound 37, 1-Benzenesulfonyl-4-(piperazin-1-ylmethyl)-1H-indole dihydrochloride] belongs 7.84 nM; to `CN1CCN(Cc2cccc3c2ccn3S(=O)(=O)c2ccc(Br)cc2)CC1` [Compound 2, 1-(4-Bromobenzenesulfonyl)-4-(4-methylpiperazin-1-ylmethyl)-1H-indole], 23.4 nM; to `CC(C)c1ccc(S(=O)(=O)n2cc(Cl)c3c(CN4CCN(C)CC4)cccc32)cc1` [Compound 28, 3-Chloro-1-[4-(1-methylethyl)benzenesulfonyl]-4-(4-methylpiperazin-1-ylmethyl)-1H-indole], 99.7 nM.
For the compound `Cc1ccc(S(=O)(=O)n2ccc3c(CN4CCN(C)CC4)cccc32)cc1` [Compound 5, 1-(4-Methylbenzenesulfonyl)-4-(4-methylpiperazin-1-ylmethyl)-1H-indole], the Ki was 7.92 nM.
Still for that read-out and setting: to `Cc1ccc(S(=O)(=O)n2cc(Cl)c3c(CN4CCN(C)CC4)cccc32)cc1` [Compound 29, 3-Chloro-1-(4-methylbenzenesulfonyl)-4-(4-methylpiperazin-1-ylmethyl)-1H-indole] belongs 222 nM; to `CC(C)c1ccc(S(=O)(=O)n2cc(Br)c3c(CN4CCN(C)CC4)cccc32)cc1` [Compound 20, 3-Bromo-1-[4-(1-Methylethyl)benzenesulfonyl]-4-(4-methylpiperazin-1-ylmethyl)-1H-indole], 278 nM; to `CN1CCN(Cc2cccc3c2c(Cl)cn3S(=O)(=O)c2ccccc2)CC1` [Compound 27, 3-Chloro-1-benzenesulfonyl-4-(4-methylpiperazin-1-ylmethyl)-1H-indole], 53.6 nM.
Still for that read-out and setting: to `Cc1ccc(S(=O)(=O)n2ccc3c(CN4CCNCC4)cccc32)cc1` [Compound 38, 1-(4-Methylbenzenesulfonyl-4-(piperazin-1-ylmethyl)-1H-indoledihydrochloride] belongs 10.7 nM; to `CN1CCN(Cc2cccc3c2c(Cl)cn3S(=O)(=O)c2ccccc2Br)CC1` [Compound 30, 3-Chloro-1-(2-bromobenzenesulfonyl)-4-(4-methylpiperazin-1-ylmethyl)-1H-indole], 90.7 nM; to `CN1CCN(Cc2cccc3c2ccn3S(=O)(=O)c2ccc(F)cc2)CC1` [Compound 7, 1-(4-Fluorobenzenesulfonyl)-4-(4-methylpiperazin-1-ylmethyl)-1H-indole], 9.89 nM.
On to `CN1CCN(Cc2cccc3c2ccn3S(=O)(=O)c2ccccc2Br)CC1` [Compound 6, 1-(2-Bromobenzenesulfonyl)-4-(4-methylpiperazin-1-ylmethyl)-1H-indole], for which the inhibition constant Ki amounted to 1.43 nM.
Still for that read-out and setting: to `CN1CCN(Cc2cccc3c2ccn3S(=O)(=O)c2ccccc2)CC1` [Compound 1, 1-Benzenesulfonyl-4-(4-methylpiperazin-1-ylmethyl)-1H-indole] belongs 6.51 nM.
With `COc1ccc(S(=O)(=O)n2ccc3c(CN4CCN(C)CC4)cccc32)c(Br)c1` [Compound 3, 1-(2-Bromo-4-methoxybenzenesulfonyl)-4-(4-methylpiperazin-1-ylmethyl)-1H-indole], the Ki was 8.58 nM.
The same measure, in the same setting: to `CC(C)c1ccc(S(=O)(=O)n2ccc3c(CN4CCN(C)CC4)cccc32)cc1` [Compound 4, 1-[4-(1-Methylethyl)benzenesulfonyl]-4-(4-methylpiperazin-1-ylmethyl)-1H-indole] belongs 11.1 nM.
On the same count and under the same terms, to `CN1CCN(Cc2cccc3c2c(Br)cn3S(=O)(=O)c2ccccc2)CC1` [Compound 18, 1-Benzenesulfonyl-3-bromo-4-(4-methylpiperazin-1-ylmethyl)-1H-indole] belongs 30.2 nM; to `CN1CCN(Cc2cccc3c2c(Br)cn3S(=O)(=O)c2cccc3ccccc23)CC1` [Compound 25, 3-Bromo-1-(1-naphthylsulfonyl)-4-(4-methylpiperazin-1-ylmethyl)-1H-indole], 97.6 nM.
`CN1CCN(Cc2cccc3c2c(Br)cn3S(=O)(=O)c2ccc(F)cc2)CC1` [Compound 22, 3-Bromo-1-(4-fluorobenzenesulfonyl)-4-(4-methylpiperazin-1-ylmethyl)-1H-indole]: the Ki was determined as 122 nM.
Still for that read-out and setting: the same measure for `CN1CCN(Cc2cccc3c2ccn3S(=O)(=O)c2cccc(Cl)c2)CC1` [Compound 41, 1-(3-chlorobenzenesulfonyl)-4-(4-methylpiperazin-1-ylmethyl)-1H-indole]: 13.1 nM; for `CN1CCN(Cc2cccc3c2c(Br)cn3S(=O)(=O)c2cccc(Cl)c2)CC1` [Compound 24, 3-Bromo-1-(3-chlorobenzenesulfonyl)-4-(4-methylpiperazin-1-ylmethyl)-1H-indole]: 75.3 nM.

Test system in the next assay: not given
Assay: not given
The conditions noted are these: Pouzet et al. 2002; cited from earlier work.
For the compound `COc1ccc(NS(=O)(=O)c2sc3ccc(Cl)cc3c2C)cc1N1CCNCC1` [SB-271046, 5-Chloro-N-(4-methoxy-3-piperazin-1-ylphenyl)-3-methyl-2-benzothiophenesulfonamide], the “activity in animal tests related to positive or negative symptoms of schizophrenia” value is “inactive”.

Another assay relates to 5-HT6 receptor.
Assay: not given
The conditions noted are these: literature; cited from earlier work.
Take `CN(C)CCC=C1c2ccccc2CCc2ccccc21` [amitriptyline]: the “affinity for the 5-HT6 receptor” value is on record as “high affinity”.
`CN1CCN2c3ccccc3Cc3ccccc3C2C1` (stereo not drawn) [mianserin]: the “affinity for the 5-HT6 receptor” value is listed as “high affinity”.

Source of the values: US20100041669A1, “4-(HETEROCYCLYL)ALKYL-N-(ARYLSULFONYL)INDOLE COMPOUNDS AND THEIR USE AS 5-HT6 LIGANDS” (priority 2007, published 2010).
